Seven compounds from patent US10570099B2, “Salts of an epidermal growth factor receptor kinase inhibitor” (Celgene CAR LLC, priority 2012, dated 2020) can be followed below.

Series [1] is described as follows: Shake flask solubility of potential salts in aqueous medium (pH<2). It counts as physicochemical. The note with it: pH<2, ca. 24 hours shaking, HPLC. The method, then: The solubility of the potential salts was tested using a shake flask method whereby a slurry of each salt was prepared in deionized water and the pH of the reaction was reduced to below pH 2 by adding a small amount of the counterion used for salt formation. The pH was tested using universal indicator paper.
(§1) (open vials). TGA was carried out after the stability studies for samples containing sufficient material.

The nature of series [2]: Dog PK Study 1 (cross-over, fasted). The conditions noted are these: male, beagle, po; for AUC(0-t): read-out: AUC0-24; for Tmax: median. It counts as in vivo, beagle dogs. As for the experimental part: Compound 1 free base and compound 2, as the Form I monohydrobromide (HBr) salt, were evaluated in a cross-over dog PK study. Compound 1 free base capsule consisted of compound 1 free base in Vitamin E TPGS and PEG 400 filled into a capsule. The Form I hydrobromide salt capsule consisted of Form I HBr alone filled into a capsule.
Compound 1 free base capsule and Form I HBr capsule were dosed orally at 28.5 and 24.5 mg/kg (as active) QD, respectively, to three fasted male non-naïve beagle dogs (body weight range: 10.1-10.8 kg) with a 5-day washout period. Approximately 5 mL of tap water was orally administered to encourage swallowing and ensure delivery of capsules into the stomach. Plasma samples were collected at pre-dose and 0.5, 1, 2, 4, 6, 8, 12 and 24 hours post dose. The plasma concentrations of compound 1 were determined by a liquid chromatography-tandem mass spectrometry (LC/MS/MS) method.

Series [3] is described as follows: Dog PK Study 2 (gastric pH adjustment, food effect). The conditions noted are these: 30 mg/kg, plasma compound 1, dogs (n = 3), capsule orally 30 mg/kg, mean (% CV); for AUC(0-t): read-out: AUC0-24. The format is in vivo, beagle dogs. As for the experimental part:
Compound 1 free base and compound 2, as the Form I monohydrobromide (HBr) salt, were evaluated in a cross-over dog PK study in which male dogs were pre-treated with either pentagastrin (to decrease gastric pH) or famotidine (to increase gastric pH) prior to oral dosing to control gastric pH. In addition, the effect of food on the systemic exposure to compound 1 was also evaluated in dogs receiving Form I HBr with pentagastrin pre-treatment. Compound 1 free base capsule consisted of compound 1 free base in Vitamin E TPGS and PEG 400 filled into a capsule. The Form I hydrobromide salt capsule consisted of Form I HBr alone filled into a capsule.
There was a minimum 6-day washout between dosing. On the day of dosing under fed condition, dogs were given 60 gram of a high fat diet (Harlan Teklad 2027C) and allowed to consume all of the food within 15-20 minutes. The animals were given a 10-minute rest period and then the capsule doses were administered. Plasma samples were collected at pre-dose and 0.5, 1, 2, 4, 6, 8, 12 and 24 hours post dose.

Series [4] can be described thus: 1 week stability study (XRPD and HPLC). The format is physicochemical. The method, then:
(§2) Resulting solids were analysed by XRPD and HPLC to establish if any changes had occurred.
as §2
The resulting solids were analysed by XRPD and HPLC to establish if any changes had occurred.

The nature of series [5]: Thermodynamic solubility in media of various pH (HPLC; XRPD of excess solids). The conditions noted are these: for Thermodynamic Solubility: ca. 24 hours. As for the experimental part: The remaining solids were also analysed by XRPD analysis to establish if any changes in the solid form occurred.
The remaining solids were also analysed by XRPD analysis to establish if any changes in the solid form occurred. For the buffer solutions, KCl/HCl was used for pH 1 and citrate/phosphate combinations for pH 3, 4.5 and 6.6.
The remaining solids were also analysed by XRPD analysis to establish if any changes in the solid form occurred. For the buffer solutions, KCl/HCl was used for pH 1 and citric acid/sodium citrate combinations for pH 3, 4.5 and 6.2.
The solids were then removed by filtration and tested by XRPD analysis. The mother liquors were analyzed by HPLC to determine API solubility.
For the buffer solutions, KCl/HCl was used for pH 1 and citrate/phosphate combinations for pH 3, 4.5 and 6.6 (10 mM). The pH of the solutions was also measured prior to HPLC analysis.

Series [6] is described as follows: Dynamic vapour sorption (DVS). The format is physicochemical. The method, then: For dynamic vapour sorption (DVS), approximately 10-20 mg of sample was placed into a wire mesh vapour sorption balance pan and loaded into a DVS-1 dynamic vapour sorption balance by Surface Measurement Systems. The sample was subjected to a ramping profile from 20-90% relative humidity (RH) at 10% increments, maintaining the sample at each step until a stable weight had been achieved (99.5% step completion). After completion of the sorption cycle, the sample was dried using the same procedure, but all the way down to 0% RH and finally taken back to the starting point of 20% RH. The weight change during the sorption/desorption cycles were plotted, allowing for the hygroscopic nature of the sample to be determined.

A short description of series [7]: 1 week stability of primary screen salts at 40° C./75% RH and 80° C. (open vials, XRPD). It counts as physicochemical. The method, then:
as §1

The nature of series [8]: Solvent solubility screen of amorphous hydrobromide salt. The format is physicochemical. As for the experimental part: Approximately 10 mg of amorphous hydrobromide salt was placed in each of 24 vials and 5 volume aliquots of the appropriate solvent system was added to the vial. Between each addition, the mixture was checked for dissolution. This procedure was continued until dissolution was observed or until 100 volumes of solvent had been added.

The mark [9] stands for this setting: plasma compound 1, fasted dogs, capsule orally 28.5 mg/kg, mean, dog #3 excluded.
Where [10] appears, read: dog, plasma compound 1, fasted dogs (n = 3), capsule orally 24.5 mg/kg, mean (% CV).
The mark [11] stands for this setting: 25° C., closed container, 7 day.
The mark [12] stands for this setting: 80° C., closed container, 7 day.

Structures can show the parent of a compound that is named as a salt. A value given as a limit tells only on which side of the number the result lay.

For the compound `C=CC(=O)Nc1cccc(Nc2nc(Nc3ccc(N4CCN(C(C)=O)CC4)cc3OC)ncc2C(F)(F)F)c1.O=C(O)c1c(O)cc(O)cc1O` [2,4,6-Trihydroxybenzoate Form II], in series [1], the “Approximate Solubility” value is listed as “Below LOQ”.
Consider `C=CC(=O)Nc1cccc(Nc2nc(Nc3ccc(N4CCN(C(C)=O)CC4)cc3OC)ncc2C(F)(F)F)c1` [Compound 1 (Free Base)], for which, in series [2] (setting [9]), the Cmax amounted to 120 ng/mL, the half-life is 2.1 h and the AUC(0-t) amounted to 278 ng·h/mL. Also, the Tmax in series [2] (plasma compound 1, fasted dogs, capsule orally 28.5 mg/kg, dog #3 excluded) was 1 h. Also, the AUC(0-t) in series [3] (male, beagle, dog, plasma, po, Pentagastrin, fasted) came to 7810 ng·h/mL. In addition, in series [3] (male, beagle, dog, plasma, po, Pentagastrin, fasted, read-out: Cmax), the Cmax came out at 1820 ng/mL. Moreover, in series [3] (Famotidine, fasted), the AUC0-24 is recorded as 163 (3%) ng · h/mL and the Cmax is listed as 57 (24%) ng/mL.
In series [2] (dog, plasma compound 1, fasted dogs (n = 3), capsule orally 24.5 mg/kg, mean), `C=CC(=O)Nc1cccc(Nc2nc(Nc3ccc(N4CCN(C(C)=O)CC4)cc3OC)ncc2C(F)(F)F)c1` [Compound 2 (Form I Hydrobromide)] gave a half-life of 2.4 h. For the same compound, the Cmax in series [2] (setting [10]) is 1420 ng/mL; in series [3] (male, beagle, dog, plasma, po, Pentagastrin, fed, read-out: Cmax) it was 3970 ng/mL; in series [3] (Famotidine, fasted), 1180 (20%) ng/mL; in series [3] (Pentagastrin, fasted), 2860 (39%) ng/mL. Further, the AUC(0-t) in series [2] (setting [10]) worked out at 5260 ng·h/mL; in series [3] (male, beagle, dog, plasma, po, Pentagastrin, fed), 13900 ng·h/mL. In addition, the Tmax in series [2] (dog, plasma compound 1, fasted dogs (n = 3), capsule orally 24.5 mg/kg) came to 2 h. Besides, the AUC0-24 is given as 4010 (54%) ng · h/mL in series [3] (Famotidine, fasted) and 9450 (31%) ng · h/mL in series [3] (Pentagastrin, fasted).
In the case of `Br.C=CC(=O)Nc1cccc(Nc2nc(Nc3ccc(N4CCN(C(C)=O)CC4)cc3OC)ncc2C(F)(F)F)c1` [Form III hydrobromide salt], the “HPLC purity after storage” value amounted to 98.9% in series [4] (setting [11]); 98.2% in series [4] (25° C., open container, 7 day); 99.0% in series [4] (40° C./75% RH, closed (crimped) vial, 1 week); 98.3% in series [4] (40° C./75% RH, open vial, 1 week); 99.0% in series [4] (setting [12]); 98.7% in series [4] (80° C., open vial, 1 week, listed as Form III). For the same compound, the XRPD after storage result in series [4] (setting [11]) is given as “Form I”; in series [4] (25° C., open container, 7 day), “Form I”; in series [4] (40° C./75% RH, closed (crimped) vial, 1 week, listed as Form III) it was “Form I”; in series [4] (40° C./75% RH, open vial, 1 week, listed as Form III) it was “Form I”; in series [4] (setting [12]), “Form I”. The “pH prior to analysis” value in series [5] (Buffer pH 1) is reported as 0.95; in series [5] (Buffer pH 3), 1.53; in series [5] (Buffer pH 4.5), 1.79; in series [5] (Buffer pH 6.6) it was 1.79. In addition, the “XRPD of excess solids” value in series [5] (pH 1.0, KCl/HCl) is listed as “remained predominantly consistent with the Form III hydrobromide”; in series [5] (pH 3.0, Citrate/Phosphate) it was “became amorphous”; in series [5] (pH 4.5, Citrate/Phosphate), “converted to a freebase hydrate form”; in series [5] (pH 6.6, Citrate/Phosphate), “converted to a freebase hydrate form”. In addition, the “Thermodynamic Solubility” value in series [5] (pH 1.0, KCl/HCl buffer, listed as Form III) is 13880 µg/mL; in series [5] (pH 4.5, Citrate/Phosphate), 280 µg/mL. In addition, the “hygroscopicity (DVS)” value in series [6] is “slightly hygroscopic”. Further, the “Moisture uptake, Cycle 3 Sorption” value in series [6] (0-20% RH) was “ca. 0.535%”. In addition, the “mass uptake, Cycle 1 Sorption” value in series [6] (20-90% RH) is reported as “ca. 1.045%”. Further, the “mass decrease, Cycle 2 Desorption” value in series [6] (90-0% RH) was “ca. 1.983%”. In series [6] (after DVS cycles, listed as Form III), the “post DVS XRPD analysis (polymorphic form)” value is given as “converted to Form I hydrobromide salt”.
For the compound `C=CC(=O)Nc1cccc(Nc2nc(Nc3ccc(N4CCN(C(C)=O)CC4)cc3OC)ncc2C(F)(F)F)c1.Cc1ccc(S(=O)(=O)O)cc1.Cc1ccc(S(=O)(=O)O)cc1` [Tosylate (2 equiv.) Form II], in series [7], the “Stability 40° C./75% RH (open conditions)” value was “Gum formed” and the “Stability 80° C. (open conditions)” value is recorded as “Possible form change,”.
For `C=CC(=O)Nc1cccc(Nc2nc(Nc3ccc(N4CCN(C(C)=O)CC4)cc3OC)ncc2C(F)(F)F)c1.Cc1ccc(S(=O)(=O)O)cc1.Cc1ccc(S(=O)(=O)O)cc1` [Tosylate (2 equiv.) Form I], in that order: “No form change,” and “No form change,”.
In the case of `Br.C=CC(=O)Nc1cccc(Nc2nc(Nc3ccc(N4CCN(C(C)=O)CC4)cc3OC)ncc2C(F)(F)F)c1` [amorphous hydrobromide salt], the “Approximate Solubility” value in series [8] (1,4-Dioxane), in series [8] (1-Butanol), in series [8] (2-Propanol), in series [8] (3-Methyl-1-butanol), in series [8] (Acetone) and in series [8] (Acetone:Water (10%)) was below 10000 µg/mL throughout. Also, the “Approximate Solubility” value was below 10000 µg/mL in series [8] (Acetonitrile); below 10000 µg/mL in series [8] (Cyclohexane); below 10000 µg/mL in series [8] (Dichloromethane); below 10000 µg/mL in series [8] (Diisopropyl ether); “ca. 67 mg/mL” in series [8] (Dimethylformamide); “ca. 50 mg/mL” in series [8] (Dimethylsulfoxide). Moreover, the “Approximate Solubility” value in series [8] (Ethanol), in series [8] (Ethyl acetate), in series [8] (Heptane), in series [8] (Isopropyl acetate), in series [8] (Methyl isobutyl ketone) and in series [8] (Methylethyl ketone) was below 10000 µg/mL in each case. In addition, the “Approximate Solubility” value in series [8] (N-Methyl-2-pyrrolidone) was “ca. 20 mg/mL”; in series [8] (Nitromethane), below 10000 µg/mL; in series [8] (Tetrahydrofuran) it was below 10000 µg/mL; in series [8] (Toluene) it was below 10000 µg/mL; in series [8] (Water) it was below 10000 µg/mL; in series [8] (tert-Butylmethyl ether), below 10000 µg/mL.

A word on the half-life: it is the time needed for the level to fall by half in the phase considered. For orientation: Tmax means the time at which the peak concentration occurs.
